Reference: patent US20230192686A1, “1H-PYRROLO[2,3-B]PYRIDINES AND PREPARATION AND USES THEREOF” (BioSplice Therapeutics, Inc., priority 2021, published 2023)

Legend:
[1] = target: recombinant DYRK1A kinase (Homo sapiens, UniProt Q13627); test: DYRK1A kinase assay (Ser/Thr 18 peptide Z-lyte FRET); assay type: biochemical; conditions: DYRK1A kinase activity; 15 μM ATP, 4 μM Ser/Thr peptide 18, one hour at room temperature
Outline: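 Recombinant DYRK1A at 0.25 μg/mL was incubated 1 h at room temperature with 15 μM ATP, 4 μM Ser/Thr 18 peptide and compound, in duplicate, 11-point series from 10 μM. Phosphorylation was read by Z-lyte FRET after 1 h protease development, as the coumarin/fluorescein emission ratio converted to % phosphorylation. IC50 by non-linear regression.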

[2] = system: Tau phosphorylation at Thr212 (pThr212); test: Tau phosphorylation assay, phosphoTau (Thr212) AlphaLISA in HEK293T cells transfected with DYRK1A and MAPT; assay type: cell-based; conditions: HEK-293T; HEK293T cells transfected with human DYRK1A and MAPT; compound treatment 18-24 hours; read-out: pTau (Thr212) EC50
Protocol: Representative compounds were screened using the assay procedure for tau phosphorylation activity described below.
HEK293T cells (ATCC, CRL3216) cultured in DMEM (Thermo Fisher Scientific, 10566024) supplemented with 10% FBS (Corning, 35-011-CV) and Penicillin/Streptomycin (Thermo Fisher Scientific, 15140163) were seeded in a 75 cm^2 flask at 8.1×10^6 cells/flask. The HEK293T cells were then transiently transfected with 5 μg DYRK1A (NM_001396) human untagged clone (OriGene, SC314641) and 2.5 μg MAPT (441 a.a. Tau gene) (NM_005910) human untagged clone (OriGene, TP313312) using Lipofectamine 3000 (Thermo Fisher Scientific, L30000015) and incubated for 20-30 hours in a humidified incubator at 37° C. and 5% CO2. Post-incubation, HEK293T cells transfected with the DYRK1A and MAPT expression vectors were harvested and seeded in BioCoat poly-D lysine coated 96-well plates (Corning, 354461) at 3×10^4 cells/well.
The above synthesized compounds were screened using the cell assay procedure to assess decreased Tau phosphorylation at Thr212 (pThr212) described below.
Each compound was dissolved in DMSO (Sigma-Aldrich, D8418-100 mL) as a 10 mM stock. 10 mM stocks were serially diluted 1:3, 10-point dose-response curve and added to the cells with a final concentration ranging from 20 μM to 1.1 nM. Cell were treated with compounds in duplicate and incubated for 18-24 hours in a humidified incubator at 37° C. and 5% CO2.
Following the overnight compound treatment, cells were lysed with 1× Alpha Surefire Ultra Lysis Buffer (Perkin Elmer, ALSU-LB-100ML) complemented with 1× Halt Phosphatase Inhibitor Cocktail (Thermo Fisher Scientific, 78427) and 1× Halt Protease Inhibitor Cocktail (Thermo Fisher Scientific, 78438). Lysates were spun down at 12,000 g for 10 min to remove any cellular debris and 5 μL of lysates were dispensed into a 384-well Opti-Plate (Perkin Elmer, 6007290) for the measurement of Tau phosphorylation in the phosphoTau (Thr212) AlphaLISA assay. Donor antibody, biotinylated HT7Tau (Thermo Fisher Scientific, MN1000B), and acceptor antibody, pThr212Tau (Thermo Fisher Scientific, 44740G) were both added to the cell lysates at a final concentration of 3 nM and incubated for 1 hour at room temperature. Following incubation of the lysates with the donor and acceptor antibodies, anti-rabbit IgG(Fc specific) AlphaLISA acceptor beads (Perkin Elmer, AL104C) were added at a 10 ug/mL final concentration and incubated for 1 hour at room temperature protected from light. Lastly, AlphaScreen streptavidin donor beads (PerkinElmer, 6760002) were added at 40 ug/mL final concentration and incubated for 1 hour at room temperature protected from light. Plates were read at Ex=[…], and Em=615 nm on the EnVision Multilabel Plate Reader (Perkin Elmer) phospho-Tau (Thr212) AlphaLISA signal was used to plot, draw the curve fitting, and determine each compound's EC50 in Prism (GraphPad).

EC50 [1] [nM] | EC50 [2] [nM] | Compound
7 | 8 | CN1CCC(NC(=O)c2cnn3ccc(-c4c[nH]c5nc(-c6ccccc6)ccc45)cc23)CC1 [Compound 2018, N-(1-Methylpiperidin-4-yl)-5-(6-phenyl-1H-pyrrolo[2,3-b]pyridin-3-yl)pyrazolo[1,5-a]pyridine-3-carboxamide]
47 | 622 | CN1CCN(C(=O)c2cnn3ccc(-c4c[nH]c5ncc(C#N)cc45)cc23)CC1 [Compound 2046, 3-(3-(4-Methylpiperazine-1-carbonyl)pyrazolo[1,5-a]pyridin-5-yl)-1H-pyrrolo[2,3-b]pyridine-5-carbonitrile]
51 | 6240 | O=C(Nc1ccncc1)c1ccc2c(-c3ccc4ncccc4c3)c[nH]c2n1 [Compound 2054, N-(Pyridin-4-yl)-3-(quinolin-6-yl)-1H-pyrrolo[2,3-b]pyridine-6-carboxamide]
